Results published in patent US8372866B2, “2-aryl and 2-heteroaryl 4H-1-benzopyran-4-one-6-amidino derivatives, new pharmacological agents for the treatment of arthritis, cancer and related pain” (Rottapharm S.p.A., priority 2008, dated 2013).
Where a name gives a salt, the structure may show the parent alone. Read-outs that look alike come from different tables or passages of the source.

Columns and labels:
[1] = molecular target: T1, recombinant human aggrecanase 1 (ADAMTS-4) (Homo sapiens, UniProt O75173); assay: InviLISA Aggrecanase activity assay, aggrecanase 1; assay type: biochemical; settings: for inhibition at 10 µM: inhibitors tested at 10 μM final concentration
T1 construct: ADAMTS-4 aminoacids F213-A579 with C-terminal tag; purchased Invitek GmbH, Berlin
T1 sequence (O75173 213-579): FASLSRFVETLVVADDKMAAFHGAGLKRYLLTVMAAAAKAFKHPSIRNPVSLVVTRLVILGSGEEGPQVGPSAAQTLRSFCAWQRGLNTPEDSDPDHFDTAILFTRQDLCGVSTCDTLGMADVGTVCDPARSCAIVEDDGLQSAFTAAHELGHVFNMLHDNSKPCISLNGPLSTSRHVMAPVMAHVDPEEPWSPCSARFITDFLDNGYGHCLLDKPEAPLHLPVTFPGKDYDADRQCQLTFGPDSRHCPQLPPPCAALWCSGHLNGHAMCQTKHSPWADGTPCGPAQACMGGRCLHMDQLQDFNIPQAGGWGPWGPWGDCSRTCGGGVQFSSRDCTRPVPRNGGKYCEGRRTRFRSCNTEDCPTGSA
Description: (§1) The InviLISA Aggrecanase activity assay (Invitek GmbH, Berlin) was used to screen and characterise aggrecanase inhibitors. The assay was carried out in two steps, according to Will et al. (Will H, Dettloff M, Bendzko P, Svenshnikov P, A Quantitative Assay for aggrecanase Activity; 2005, Journal of Biomolecular Techniques, 16 (4), 459-472). A recombinant fragment of human aggrecan interglobular domain (aggrecan-IGD; T331-G458) is first digested with aggrecanase. Proteolytic cleavage of the substrate releases an aggrecan peptide with the N-terminal sequence ARGSVIL (ARGSVIL-peptide), that was then quantified with two monoclonal anti-peptide antibodies (ELISA module). For precise calculation of product, ARGSVIL-peptide standard concentrations were run in parallel.
(§2) 1) Proteolysis of aggrecan-IGD by aggrecanase. Aggrecan-IGD was incubated with standard recombinant human aggrecanase 1 (ADAMTS-4 aminoacids F213-A579 with C-terminal tag) or standard recombinant human aggrecanase 2 (ADAMTS-5 aminoacids S262-G625 with C-terminal tag) in the absence (total enzymatic activity) or presence (modulated enzymatic activity) of inhibitors to be tested. Enzymes were pre-incubated with the inhibitors or the appropriate concentration of diluent as control (DMSO 0.25% final concentration in proteolysis), at 4° C. for 30 min prior to assaying their activity. Five microliters of mix enzyme-inhibitor were added to the substrate (0.1 μM final concentration) in a total volume of 100 μL and incubated for 15 minutes at 37° C. The reaction was terminated with EDTA-containing buffer. The inhibitors were tested at 10 μM final concentration and compounds achieving ≧50% inhibitory effect were evaluated for IC50 calculation, in a range generally extended from 0.1 to 10 μM final concentration.
(§3) 2) Aggrecan peptide ELISA. ARGSVIL-peptide standard, proteolytic digestion of Aggrecan-IGD with standard aggrecanases and test samples were incubated in microtiter wells pre-coated with anti-ARGSVIL-neoepitope antibody. ARGSVIL-peptide is bound to the coated antibody, while other components are removed by washing and aspiration. The bound ARGSVIL-peptide was detected with a second peroxidase-labelled antibody. Any excess of the conjugate was removed by washing and aspiration. The amount of peroxidase bound to different wells was determined in reactions with peroxidase substrate TMB. The reactions are stopped by addition of sulphuric acid solution and absorbance is read at 450 nm in a microtiter plate spectrophotometer.

[2] = molecular target: T2, recombinant human aggrecanase 2 (ADAMTS-5) (Homo sapiens, UniProt Q9UNA0); assay: InviLISA Aggrecanase activity assay, aggrecanase 2; assay type: biochemical; settings: for inhibition at 10 µM: inhibitors tested at 10 μM final concentration
T2 construct: ADAMTS-5 aminoacids S262-G625 with C-terminal tag; purchased Invitek GmbH, Berlin
T2 sequence (Q9UNA0 262-625): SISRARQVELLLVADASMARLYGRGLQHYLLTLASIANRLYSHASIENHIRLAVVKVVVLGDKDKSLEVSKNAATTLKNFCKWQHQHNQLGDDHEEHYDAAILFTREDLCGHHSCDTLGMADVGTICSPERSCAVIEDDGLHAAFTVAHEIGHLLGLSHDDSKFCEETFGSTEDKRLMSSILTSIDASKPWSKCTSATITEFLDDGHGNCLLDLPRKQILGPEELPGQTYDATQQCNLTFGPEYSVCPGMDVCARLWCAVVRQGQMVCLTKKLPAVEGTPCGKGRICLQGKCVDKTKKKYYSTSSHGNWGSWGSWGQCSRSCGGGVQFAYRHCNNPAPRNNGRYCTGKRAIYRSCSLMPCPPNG
Description: as §1, §2, §3

[3] = system: Zymosan-induced mechanical hyperalgesia; assay: Zymosan-induced mechanical hyperalgesia (Randall-Selitto), model of inflammatory pain; assay type: in vivo, rat; settings: for ED50: read-out: ED50 4 hrs
Description: In this model, typically a male Sprague-Dawley or Wistar rat (200-250 g) receives an interplantar injection of 3 mg/100 μl zymosan into one hind paw. A marked inflammation occurs in this hind paw. Drugs are administered orally for evaluation of efficacy, 30 min. before the inflammatory insult. […] The quantisation of the analgesic effect is achieved by an analgesimeter, which consists in applying to the inflamed paw an increasing weight (from 130-140 g up to 500 g). […] For each test compound, at least three doses were used, with 8 animals per group. Compounds of the invention were tested at 10, 20 and 40 mg/Kg.

[4] = system: CFA-induced prolonged inflammation; assay: CFA model of chronic inflammatory pain (Randall-Selitto); assay type: in vivo, rat; settings: for MPE 0.5 hrs / MPE 1.5 hrs / MPE 3 hrs / MPE 6 hrs / MPE 24 hrs: NE = not effective; for ED100 0.5 hrs: IP, calculated from the MPE data at 0.5 hrs; for ED50: Rattus norvegicus, ip, 0.5 h, read-out: ED50 0.5 hrs
[5] = system: mechanical hyperalgesia associated with STZ-induced diabetes; assay: STZ-induced diabetes mechanical hyperalgesia, model of neuropathic pain (Randall-Selitto); assay type: in vivo, rat
Description: Painful diabetic neuropathy is one of the most common complications of insulin-dependent diabetes in man; in particular, diabetes can be associated with neuropathic pain which fails to be treated by classical analgesics. Streptozotocin (STZ)-induced diabetes in the rat has been increasingly used as a model of painful diabetic neuropathy to assess the efficacies of potential analgesic agents (C. Courteix, Pain 1993, 53, 81-8). A representative compound of the invention was tested for efficacy in reducing mechanical hyperalgesia associated with STZ-induced diabetes in the rat, according to the experimental model as described by the literature. Diabetes was produced with the injection of a single dose (75 mg/Kg i.p.) of STZ. In the following four weeks after the induction of diabetes the clinical symptoms (weight, body and skin temperature, motility and hyperglycemia) progressively developed by the animals, are strictly monitored.
After four weeks, the scores obtained in diabetic rats to various pain stimuli (in particular mechanical stimuli) were greater than those in normal rats, indicating hyperalgesia. The hyperalgesia induced by diabetes was evaluated using the Randall-Selitto method as above described, and quantitated using the analgesimeter. Also in this case, the difference in the mechanical pain threshold between the basal value (generally 230-250 g) and the one tolerated by the animals treated with the drug, is defined as mechanical hyperalgesia. The compound of the invention was administered i.p. (solution, Tween 80, 10% in saline) at different doses, and mechanical hyperalgesia was measured at the reported time, as maximum percent effect (MPE) which represents the difference (%) in pain threshold between the animals treated with the drug and the controls that received only the vehicle, compared with the weight borne by naïf non-diabetic controls. A 100% protection means that the diabetic animals treated with the compound can tolerate the same stimulus (weight) as the naïf non-diabetic animals. MPE higher than 100% means that the diabetic animal treated with the compound can tolerate stimuli (weight) higher than the control non-diabetic animals (hypoalgesia).
In Table 4, the effect of a representative compound of formula (I), in the above described model of neuropathic pain, is compared with some known pharmacological standards used for the clinical treatment of this pathology. In particular, from the MPE data at 0.5 hrs, the doses yielding a protection of 50% (ED50) and 100% (ED100) have been calculated.

[6] = rat, OS, 4 hrs after zymosan, NC = not calculable
[7] = 10 mg/Kg IP, NE = not effective
[8] = 30 mg/Kg IP, NE = not effective
[9] = 50 mg/Kg IP, NE = not effective

Compound: CC(=N)Nc1ccc2oc(-c3ccccc3)cc(=O)c2c1 [Example 1, 2-phenyl-6-[(1-iminoethyl)amino]-4H-1-benzopyran-4-one hydrochloride]
- inhibition at 10 µM [1]: 10%
- inhibition at 10 µM [2]: 30%
- ED50 ([3]; Rattus norvegicus, 4 h): 7.9 mg/kg
- ED100 4 hrs [3, 6]: 19 mg/kg
- MPE 0.5 hrs ([4]; 3 mg/Kg IP): 30%
- MPE 1.5 hrs ([4]; 3 mg/Kg IP): 50%
- MPE 3 hrs ([4]; 3 mg/Kg IP): 40%
- MPE 0.5 hrs ([4]; 10 mg/Kg IP): 62%
- MPE 1.5 hrs ([4]; 10 mg/Kg IP): 39%
- MPE 0.5 hrs ([4]; 30 mg/Kg IP): 261%
- MPE 1.5 hrs ([4]; 30 mg/Kg IP): 190%
- MPE 3 hrs ([4]; 30 mg/Kg IP): 37%
- ED100 0.5 hrs [4]: 8.06 mg/kg
- ED50 [4]: 4.86 mg/kg
- MPE 0.5 hrs ([5]; 3 mg/Kg IP, NE = not effective): 74%
- MPE 1.5 hrs ([5]; 3 mg/Kg IP, NE = not effective): 25%
- MPE 0.5 hrs [5, 7]: 109%
- MPE 1.5 hrs [5, 7]: 54%
- MPE 0.5 hrs [5, 8]: 113%
- MPE 1.5 hrs [5, 8]: 39%
- MPE 3 hrs [5, 8]: 39%
- MPE 6 hrs [5, 8]: 31%
- protection ([5]; at the doses of 10 and 30 mg/kg): higher than 100%
- efficacy in STZ neuropathic pain paradigm ([5]; rat, in vivo): high efficacy

Compound: CC(=N)Nc1ccc2oc(-c3ccc(F)cc3)cc(=O)c2c1 [Example 3, 2-(4-fluorophenyl)-6-[(1-iminoethyl)amino]-4H-1-benzopyran-4-one]
- inhibition at 10 µM [1]: 40%
- IC50 [2]: 10 µM
- ED100 4 hrs [3, 6]: 24 mg/kg
- ED50 [3, 6]: 12 mg/kg

Compound: Cc1ccc(-c2cc(C(F)(F)F)nn2-c2ccc(S(N)(=O)=O)cc2)cc1 [Celecoxib, reference compound]
- ED50 [3, 6]: 9 mg/kg

Compound: CC(=N)Nc1ccc2oc(-c3ccc4c(c3)OCO4)c(O)c(=O)c2c1 (as salt: hydrochloride) [Example 16, 2-(benzo[1,3]dioxol-5-yl)-3-hydroxy-6-[(1-iminoethyl)amino]-4H-1-benzopyran-4-one hydrochloride]
- melting point: 262.3 to 262.9 °C

Compound: CC(=N)Nc1ccc2oc(-c3ccc4c(c3)OCO4)cc(=O)c2c1 (as salt: hydrochloride) [Example 4, 2-(benzo[1,3]dioxol-5-yl)-6-[(1-iminoethyl)amino]-4H-1-benzopyran-4-one hydrochloride]
- melting point: 272.7 to 273.3 °C

Compound: COc1ccc(-c2cc(=O)c3cc(NC(C)=N)ccc3o2)cc1 [Example 2, 2-(4-methoxyphenyl)-6-[(1-iminoethyl)amino]-4H-1-benzopyran-4-one hydrochloride monohydrate]
- inhibition at 10 µM [1]: 30%
- inhibition at 10 µM [2]: 30%
- ED50 ([3]; Rattus norvegicus, 4 h): 6.5 mg/kg
- ED100 4 hrs [3, 6]: 18 mg/kg
- MPE 0.5 hrs ([4]; 3 mg/Kg IP): 91%
- MPE 1.5 hrs ([4]; 3 mg/Kg IP): 87%
- MPE 3 hrs ([4]; 3 mg/Kg IP): 32%
- MPE 0.5 hrs ([4]; 10 mg/Kg IP): 193%
- MPE 1.5 hrs ([4]; 10 mg/Kg IP): 105%
- MPE 3 hrs ([4]; 10 mg/Kg IP): 42%
- MPE 6 hrs ([4]; 10 mg/Kg IP): 43%
- MPE 24 hrs ([4]; 10 mg/Kg IP): 38%
- MPE 0.5 hrs ([4]; 30 mg/Kg IP): 254%
- MPE 1.5 hrs ([4]; 30 mg/Kg IP): 190%
- MPE 3 hrs ([4]; 30 mg/Kg IP): 146%
- MPE 6 hrs ([4]; 30 mg/Kg IP): 89%
- MPE 24 hrs ([4]; 30 mg/Kg IP): 45%
- ED100 0.5 hrs [4]: 3.15 mg/kg
- ED50 [4]: 1.56 mg/kg

Compound: CC(=N)Nc1ccc2oc(-c3cccc(-n4ccnc4)c3)c(O)c(=O)c2c1 (as salt: hydrochloride) [Example 8, 2-[(3-(imidazol-1-yl)-phenyl]-3-hydroxy-6-[(1-iminoethyl)amino]-4H-1-benzopyran-4-one dihydrochloride]
- melting point: 281 to 281.5 °C

Compound: N=C(CC1CC1)Nc1ccc2oc(-c3ccc(O)cc3)c(O)c(=O)c2c1 (as salt: hydrochloride) [Example 11, 2-(4-hydroxyphenyl-3-hydroxy-6-[(1-iminoethyl-2-cyclopropyl)amino]-4H-1-benzopyran-4-one hydrochloride]
- melting point: 281 to 281.5 °C

Compound: CC(=N)Nc1ccc2oc(-c3ccc4c(c3)OCO4)cc(=O)c2c1 [Example 4, 2-(benzo[1,3]dioxol-5-yl)-6-[(1-iminoethyl)amino]-4H-1-benzopyran-4-one hydrochloride]
- inhibition at 10 µM [1]: 40%
- inhibition at 10 µM [2]: 10%
- ED50 ([3]; Rattus norvegicus, 4 h): 12 mg/kg
- ED100 4 hrs [3, 6]: 35 mg/kg

Compound: CS(=O)(=O)Nc1ccc([N+](=O)[O-])cc1Oc1ccccc1 [Nimesulide, reference compound]
- ulcerative side effects ([3]; even at the higher doses tested): ulcerative side effects
- ED50 [3, 6]: 5 mg/kg

Compound: COc1cccc(C2(O)CCCCC2CN(C)C)c1 (stereo not shown) [Tramadol]
- ED50 ([3]; Rattus norvegicus, 4 h): 25.7 mg/kg
- MPE 0.5 hrs ([5]; 3 mg/Kg IP, NE = not effective): 26%
- MPE 1.5 hrs ([5]; 3 mg/Kg IP, NE = not effective): 53%
- MPE 0.5 hrs [5, 7]: 58%
- MPE 1.5 hrs [5, 7]: 48%
- MPE 3 hrs [5, 7]: 27%
- MPE 0.5 hrs [5, 8]: 54%
- MPE 1.5 hrs [5, 8]: 64%
- MPE 3 hrs [5, 8]: 23%
- MPE 0.5 hrs [5, 9]: 81%
- MPE 1.5 hrs [5, 9]: 60%
- MPE 3 hrs [5, 9]: 43%
- ED50 ([5]; Rattus norvegicus, ip, 0.5 h, read-out: ED50 0.5 hrs, IP, calculated from the MPE data at 0.5 hrs, NC = not calculable): 10.9 mg/kg

Compound: CC(=N)Nc1ccc2oc(-c3ccc(O)c(O)c3)c(O)c(=O)c2c1 [Example 10, 2-(3,4-dihydroxyphenyl)-3-hydroxy-6-[(1-iminoethyl)amino]-4H-1-benzopyran-4-one hydrochloride]
- IC50 [1]: 0.61 µM
- IC50 [2]: 3.5 µM
